Data taken from paper PMC12384813.
Read-outs that look alike come from different tables or passages of the source.

Columns and labels:
[1] = biological target: T1, αvβ3 integrins on human GBM (U87 MG) cell (Homo sapiens, UniProt P05106+P06756); experiment: Competition assay against [^64Cu]Cu-NOTA-c(RGDfK) on U87 MG cells; format: binding; details: in competition to [^64Cu]Cu-NOTA-c(RGDfK), 1 h incubation
T1 construct: host or cells: U87 MG

[2] = set-up: method as in PMID 30023392; details: daily cisplatin for 5 days before radiation ref 24; cited from earlier work
U87 MG cells = experiment: cells; format: cell-based, human; details: U87 MG
Protocol: In this procedure, U87 MG (2 × 10^4 cells per well) were seeded in BD falcon transparent 96-well plates and incubated for 24 h.

[3] = system: SVG p12 normal glial cells

**Q.** With `N=C(N)NCCC[C@@H]1NC(=O)[C@H](CCCCNC(=O)CNC(=O)COCCOCCNC(=O)CN2CCN(CC(=O)O)CCN(CC(=O)O)CC2)NC(=O)[C@@H](Cc2ccccc2)NC(=O)[C@H](CC(=O)O)NC(=O)CNC1=O` [^natCu-NOTA-c(RGDfK), metal not drawn] as the compound, how does the IC50 [1] read?
**A.** 0.0106 ± 0.0032 µM

**Q.** What does the source list for `N.N.[Cl][Pt][Cl]` [Cisplatin]?
**A.** increase of treatment efficacy compared to radiotherapy alone [2]: 35%; EC50 (U87 MG cells; 24 h, read-out: EC50 24 h U87 MG): 90 ± 8 µM; EC50 (U87 MG cells; 48 h, read-out: EC50 48 h U87 MG): 25 ± 6 µM; EC50 (U87 MG cells; 72 h, read-out: EC50 72 h U87 MG): 20 ± 5 µM; EC50 [3]: 15 ± 5 µM; EC50 ([3]; read-out: EC50 24 h SVG p12, 24 h, SVG p12): 35 ± 4 µM; EC50 ([3]; read-out: EC50 48 h SVG p12, 48 h, SVG p12): 15 ± 7 µM
